# Experimental data from PubChem BioAssay (NCI).
#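 Five concentrations, 48 hours, 96-well plates. Definition used: TGI = concentration required for complete inhibition of growth.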
# Tests used:
# Experiment in all cases: NCI tumour cell line growth inhibition, 48 h
# [1] = tested on: MCF7 breast
# [2] = tested on: SW-620 colon
# [3] = tested on: OVCAR-4 ovarian
# [4] = tested on: HS 578T breast
# [5] = tested on: 786-0 renal
# [6] = tested on: EKVX NSCLC
# [7] = tested on: HL-60(TB) leukemia
# [8] = tested on: HOP-92 NSCLC
# [9] = tested on: DU-145 prostate
# [10] = tested on: TK-10 renal
# [11] = tested on: M19-MEL melanoma
# [12] = tested on: LXFL 529 NSCLC
# [13] = tested on: DMS 114 small cell lung
# [14] = tested on: NCI-H522 lung
# [15] = tested on: MDA-N
# [16] = tested on: NCI-H226 lung
# [17] = tested on: COLO 205 colon
# [18] = tested on: T-47D breast
# [19] = tested on: KM12 colon
# [20] = tested on: MDA-MB-231 breast
# [21] = tested on: HCC-2998 colon
# [22] = tested on: HCT-116 colon
# [23] = tested on: UO-31 renal
# [24] = tested on: HOP-18 NSCLC
# [25] = tested on: OVCAR-3 ovarian
# [26] = tested on: PC-3 prostate
# [27] = tested on: CCRF-CEM leukemia
# [28] = tested on: HT29 colon
# [29] = tested on: OVCAR-5 ovarian
# [30] = tested on: NCI/ADR-RES ovarian
# [31] = tested on: HOP-62 NSCLC
# [32] = tested on: NCI-H460 lung
# [33] = tested on: UACC-257 melanoma
# [34] = tested on: SNB-78 CNS
# [35] = tested on: DMS 273 small cell lung
# [36] = tested on: KM20L2 colon
# [37] = tested on: SNB-75 CNS
# [38] = tested on: LOX IMVI melanoma
# [39] = tested on: RXF 393 renal
# [40] = tested on: MALME-3M melanoma
# [41] = tested on: SF-268 CNS
# [42] = tested on: IGROV1 ovarian
# [43] = tested on: RPMI-8226 leukemia
# [44] = tested on: ACHN renal
# [45] = tested on: K-562 leukemia
# [46] = tested on: SR leukemia
# [47] = tested on: SF-295 CNS
# [48] = tested on: NCI-H23 lung
# [49] = tested on: XF 498 CNS
# [50] = tested on: SN12C renal
# [51] = tested on: A498 renal
# [52] = tested on: SK-MEL-2 melanoma
# [53] = tested on: OVCAR-8 ovarian
# [54] = tested on: SK-MEL-28 melanoma
# [55] = tested on: DLD-1 colon
# [56] = tested on: HCT-15 colon
# [57] = tested on: U251 CNS
# [58] = tested on: A549 NSCLC
# [59] = tested on: SNB-19 CNS
# [60] = tested on: SK-OV-3 ovarian
# [61] = tested on: MDA-MB-435
# [62] = tested on: UACC-62 melanoma
# [63] = tested on: BT-549 breast
# [64] = tested on: SF-539 CNS
# [65] = tested on: MOLT-4 leukemia
# [66] = tested on: CAKI-1 renal
# [67] = tested on: SK-MEL-5 melanoma
# [68] = tested on: M14 melanoma
# [69] = tested on: RXF-631 renal
structure (smiles),measurement,setting,value
Cc1cc2c(cc1C)[n+](=O)c(C(=O)/C=C/c1ccccc1[N+](=O)[O-])c(C)n2[O-],TGI,[1],> 46.4 µM
same,TGI,[2],> 100 µM
same,TGI,[3],> 100 µM
same,TGI,[4],> 77.2 µM
same,TGI,[5],68.4 µM
same,TGI,[6],99.1 µM
same,TGI,[7],> 100 µM
same,TGI,[8],67.4 µM
same,TGI,[9],> 100 µM
same,TGI,[10],69.7 µM
same,TGI,[11],> 100 µM
same,TGI,[12],> 100 µM
same,TGI,[13],49.1 µM
same,TGI,[14],57.6 µM
same,TGI,[15],> 100 µM
same,TGI,[16],> 100 µM
same,TGI,[17],> 100 µM
same,TGI,[18],> 100 µM
same,TGI,[19],> 100 µM
same,TGI,[20],> 100 µM
same,TGI,[21],> 100 µM
same,TGI,[22],> 100 µM
same,TGI,[23],> 100 µM
same,TGI,[24],> 93.6 µM
same,TGI,[25],> 97 µM
same,TGI,[26],> 100 µM
same,TGI,[27],> 100 µM
same,TGI,[28],> 100 µM
same,TGI,[29],> 100 µM
same,TGI,[30],> 100 µM
same,TGI,[31],> 84.1 µM
same,TGI,[32],> 100 µM
same,TGI,[33],> 100 µM
same,TGI,[34],> 80.9 µM
same,TGI,[35],> 94.5 µM
same,TGI,[36],> 100 µM
same,TGI,[37],41.1 µM
same,TGI,[38],> 100 µM
same,TGI,[39],46.2 µM
same,TGI,[40],> 96.7 µM
same,TGI,[41],74.9 µM
same,TGI,[42],> 100 µM
same,TGI,[43],> 100 µM
same,TGI,[44],66.9 µM
same,TGI,[45],> 100 µM
same,TGI,[46],> 95.7 µM
same,TGI,[47],64.6 µM
same,TGI,[48],63 µM
same,TGI,[49],37.7 µM
same,TGI,[50],> 100 µM
same,TGI,[51],91.8 µM
same,TGI,[52],55.2 µM
same,TGI,[53],> 100 µM
same,TGI,[54],> 100 µM
same,TGI,[55],> 100 µM
same,TGI,[56],> 100 µM
same,TGI,[57],64.8 µM
same,TGI,[58],> 100 µM
same,TGI,[59],42.3 µM
same,TGI,[60],> 68.6 µM
same,TGI,[61],> 100 µM
same,TGI,[62],75.3 µM
same,TGI,[63],> 100 µM
same,TGI,[64],47.2 µM
same,TGI,[65],> 100 µM
same,TGI,[66],> 97.7 µM
same,TGI,[67],> 100 µM
same,TGI,[68],> 100 µM
COC(=O)c1cc2ccccc2c2nc3ccccc3c(Cl)c12,TGI,[2],> 100 µM
same,TGI,[3],> 100 µM
same,TGI,[5],> 100 µM
same,TGI,[6],> 100 µM
same,TGI,[7],> 100 µM
same,TGI,[8],> 100 µM
same,TGI,[10],> 100 µM
same,TGI,[11],> 100 µM
same,TGI,[12],> 100 µM
same,TGI,[13],> 100 µM
same,TGI,[14],> 100 µM
same,TGI,[17],> 100 µM
same,TGI,[19],> 100 µM
same,TGI,[21],> 100 µM
same,TGI,[22],> 100 µM
same,TGI,[69],> 100 µM
same,TGI,[25],> 100 µM
same,TGI,[27],> 100 µM
same,TGI,[28],> 100 µM
same,TGI,[31],> 100 µM
same,TGI,[33],> 100 µM
same,TGI,[35],> 100 µM
same,TGI,[36],29 µM
same,TGI,[37],> 100 µM
same,TGI,[38],> 100 µM
same,TGI,[39],> 100 µM
same,TGI,[40],> 100 µM
same,TGI,[41],> 100 µM
same,TGI,[42],> 100 µM
same,TGI,[43],> 100 µM
same,TGI,[44],> 100 µM
same,TGI,[45],> 100 µM
same,TGI,[46],> 100 µM
same,TGI,[47],> 100 µM
same,TGI,[48],> 100 µM
same,TGI,[49],> 100 µM
same,TGI,[50],> 100 µM
same,TGI,[51],> 100 µM
same,TGI,[52],> 100 µM
same,TGI,[53],> 100 µM
same,TGI,[54],> 100 µM
same,TGI,[55],> 100 µM
same,TGI,[56],> 100 µM
same,TGI,[57],> 100 µM
same,TGI,[58],> 100 µM
same,TGI,[59],> 100 µM
same,TGI,[62],> 100 µM
same,TGI,[64],> 100 µM
same,TGI,[65],> 100 µM
same,TGI,[66],> 100 µM
same,TGI,[67],> 100 µM
same,TGI,[68],> 100 µM
O=c1c2ccccc2n2cnc3ccc(NCCNCCO)c1c32,TGI,[1],9.62 µM
same,TGI,[2],5.11 µM
same,TGI,[3],4.57 µM
same,TGI,[4],6.26 µM
same,TGI,[5],10.4 µM
same,TGI,[6],8.49 µM
same,TGI,[7],18.5 µM
same,TGI,[8],13.1 µM
same,TGI,[9],3.31 µM
same,TGI,[10],15.7 µM
same,TGI,[11],12.9 µM
same,TGI,[12],16.4 µM
same,TGI,[13],12.2 µM
same,TGI,[14],6.2 µM
same,TGI,[15],9.61 µM
same,TGI,[16],6.5 µM
same,TGI,[17],5.09 µM
same,TGI,[18],22.2 µM
same,TGI,[19],5.72 µM
same,TGI,[20],6.58 µM
same,TGI,[21],11.3 µM
same,TGI,[22],8.29 µM
same,TGI,[23],11.6 µM
same,TGI,[24],26.8 µM
same,TGI,[69],8.68 µM
same,TGI,[25],9.82 µM
same,TGI,[26],6.15 µM
same,TGI,[27],> 47.3 µM
same,TGI,[28],6.84 µM
same,TGI,[29],5.84 µM
same,TGI,[30],16.5 µM
same,TGI,[31],10.9 µM
same,TGI,[32],7.58 µM
same,TGI,[33],13.2 µM
same,TGI,[34],15.5 µM
same,TGI,[36],12.1 µM
same,TGI,[37],9.51 µM
same,TGI,[38],2.8 µM
same,TGI,[39],4.65 µM
same,TGI,[40],9.3 µM
same,TGI,[41],8.01 µM
same,TGI,[42],9.59 µM
same,TGI,[43],17 µM
same,TGI,[44],7.42 µM
same,TGI,[45],> 51.1 µM
same,TGI,[46],> 33.6 µM
same,TGI,[47],9.2 µM
same,TGI,[48],8.12 µM
same,TGI,[50],17 µM
same,TGI,[51],6.96 µM
same,TGI,[52],8.8 µM
same,TGI,[53],5.02 µM
same,TGI,[54],11 µM
same,TGI,[55],16.9 µM
same,TGI,[56],13.7 µM
same,TGI,[57],13.6 µM
same,TGI,[58],3.66 µM
same,TGI,[59],22.6 µM
same,TGI,[60],19.6 µM
same,TGI,[61],6.68 µM
same,TGI,[62],7.27 µM
same,TGI,[63],16.6 µM
same,TGI,[64],15.8 µM
same,TGI,[65],10.3 µM
same,TGI,[66],9.46 µM
same,TGI,[67],5.4 µM
same,TGI,[68],8.07 µM
